What was measured:
[1] = Solubility in aqueous phosphate buffer at pH 7
[2] = Stability of particles suspended in pH 7 phosphate buffer on storage, crystal form followed by DSC; assay type: physicochemical; details: suspended in phosphate buffer pH 7, stored at 30° C. and 40° C.
Method: With reference to FIG. 2a, the conversion of Form I to Form II was monitored by periodically taking aliquots of the stored suspension, isolating the suspended solids by filtration and drying the isolated solids at room temperature. DSC analysis was performed on the isolated, dried solids using a 10 mg sample of the solids and a Mettler DSC 822e programmed to heat at a rate of 10° C./min, from 25° C. to 250° C. The results of this study are presented in, with the result shown in the upper traces of FIG. 2a.

[3] = Plasma levels of asenapine after IM depot injection in rabbits; assay type: in vivo, New Zealand white rabbits; details: 1 mL IM injection, 20 wt % suspension, Form I mean particle size 20 micron, Form II 16 micron, rabbit
Method: Each of the formulations prepared in Example 2 were administered to a series of experimental animal subjects (New Zealand white rabbits) as a depot injection. A depot of 1 mL volume of the formulation selected was administered into the left limb of the subject. At time intervals following injection, blood samples were collected from the subject's ear artery in 0.03 mL of 0.2M EDTA, Samples were collected at 1, 3, and 6 hours post injection, then 1, 2, 3, and 6 days post injection, then on days 10, 13, 17, 20, 24 and 25. Once collected, blood samples were centrifuged for 2 min. at room temperature (125,000 N/kg). Plasma samples thus obtained were analyzed by LC/MS after adding an internal standard. The asenapine and internal standard were isolated from the sample by solid phase extraction. […]
In additional animal studies, and with Reference to FIG. 10, using the same procedures described above, suspensions comprising 20 wt % of asenapine hemipamoate of Form I (mean particle size of 20 micron) and Form II (mean particle size 16 micron) were prepared. […] Plasma levels of asenapine were determined using the above-described procedure. […]

[4] = In vitro dissolution in USP paddle stirring dissolution apparatus; details: for rate of dissolution, Form I compared with Form II (FIG. 8a): phosphate buffered saline 10 mM pH 7.0, 37° C., 100 RPM, similar particle size fractions
Method: To carry out these studies, particle, fractions of crystalline Form II of asenapine hemipamoate having d50, values of 3.5 microns, 7 microns, and 20 microns respectively, (see FIG. 7e) were obtained and placed into one of the dissolution vessels of the apparatus. Prior to charging a dissolution vessel with an aliquot of particles, each of the vessels was filled with 1 L of phosphate buffered saline (10 mM, adjusted to pH 7.0) and fitted with a probe that contained a mirror and optical arrangement in its tip defining a fixed sample path. Each probe was optically connected to a central light source and detector permitting real-time photometric monitoring of the concentration of asenapine in solution as dissolution proceeded during the investigation.
The particle fractions were prepared for use in the apparatus by dispersing the sample (20 mg) in 1 mL of an aqueous solution comprising 3 wt. % macrogol 3400, 0.118 wt. % of disodium hydrogen phosphate, 0.047 wt. % sodium dihydrogen phosphate and 0.76 wt. % sodium chloride. Each determination was carried out by adjusting the apparatus to the desired dissolution conditions (temperature, paddle speed, pH of dissolution media) and injecting 50 microliter of the selected crystalline Form II of asenapine hemipamoate dispersion (equivalent to 1 mg of crystalline Form II of asenapine hemipamoate) into a dissolution vessel filled with the desired dissolution medium. Asenapine hemipamoate concentration in the dissolution medium was monitored optically using the probe system described above during the course of the dissolution.
The above-described in vitro testing methodology was used to compare the dissolution of crystalline crystalline Form I of asenapine hemipamoate hemipamoate (as precipitated) and crystalline Form II of asenapine hemipamoate (as precipitated). Accordingly, 20 mg of a particle fraction of crystalline Form I of asenapine hemipamoate having a d50 value of 19 microns, a d90 value of 41 microns and a d10 value of 3 microns was dispersed into 2 mL of a polysorbate 80 solution. An aliquot of 100 microliter of the dispersion was introduced into dissolution medium contained in a paddle stirring apparatus as described above. For these tests the dissolution vessels of the apparatus were filled with 1 L of phosphate buffered saline (10 mM, adjusted to pH 7.0). The temperature of the dissolution medium was maintained at 37° C. and the apparatus paddle speed was set at 100 RPM.
For comparison, a 100 microliter sample of a dispersion comprising 100 mg of crystalline Form II of asenapine hemipamoate particle fraction having a d50 value of 16 microns, a d90 value of 50 microns, and a d10 value of 2 microns, dispersed in 1 mL of a polysorbate 80 solution, as described above was studied under the same conditions and dissolution medium used to study the sample containing crystalline Form I of asenapine hemipamoate.

[5] = Plasma concentration of asenapine after depot injection in patients with stable chronic schizophrenia; assay type: in vivo, human; details: 1.0 mL of 20 wt % suspension in deltoid muscle, d50 10 microns
Method: Formulations of the invention were studied in human patients diagnosed with stable chronic schizophrenia. Using the same procedure described above, a suspension was prepared comprising 20 wt % of crystalline Form II of asenapine hemipamoate. The Form II particle fraction employed to prepare the suspension yielded a d10 value of 3 microns, a d90 value of 27 microns and a d50 value of 10 microns. An injection of 1.0 mL volume of the suspension was administered in the deltoid muscle of the upper arm by inserting the needle in the thickest part of the deltoid muscle at a 90 degree angle to the skin, followed by aspiration for 5 to 10 seconds, followed by injection of the depot over a 10 second interval. The plasma concentration of asenapine provided by the depot was observed using the above-described procedure.

[6] = IM depot of suspended olanzapine pamoate particles; cited from earlier work
[7] = IM depot injection, mean particle diameter 6.63, 10.68, 17.16 or 29.96 microns, dogs; cited from earlier work

CN1C[C@@H]2c3ccccc3Oc3ccc(Cl)cc3[C@H]2C1.CN1C[C@@H]2c3ccccc3Oc3ccc(Cl)cc3[C@H]2C1.O=C(O)c1cc2ccccc2c(Cc2c(O)c(C(=O)O)cc3ccccc23)c1O [crystalline Form I of asenapine hemipamoate] [reference compound]
solubility of Form I relative to Form II [1]: approximately 4 times
stability of crystalline form on storage of suspension (DSC of recovered solids) [2]: slowly converted to crystalline Form II of asenapine hemipamoate
initial plasma levels, Form I versus Form II (FIG. 10) [3]: burst release
rate of dissolution, Form I compared with Form II (FIG. 8a) [4]: significantly higher

CN1C[C@@H]2c3ccccc3Oc3ccc(Cl)cc3[C@H]2C1.CN1C[C@@H]2c3ccccc3Oc3ccc(Cl)cc3[C@H]2C1.O=C(O)c1cc2ccccc2c(Cc2c(O)c(C(=O)O)cc3ccccc23)c1O [crystalline Form II of asenapine hemipamoate]
period of controlled release of asenapine (FIG. 11) [5]: about 4 weeks
stability of crystalline form on storage of suspension (DSC of recovered solids) [2]: does not decompose or convert to any other crystalline form
effect of temperature of dissolution medium on dissolution behavior (FIG. 7b) ([4]; 35° C. to 39° C.): reasonably insensitive to variation in temperature
effect of paddle speed on dissolution behavior (FIG. 7d) ([4]; 50 rpm to 150 rpm): reasonably insensitive to variation in the paddle speed
effect of dissolution medium pH on rate of dissolution (FIG. 7c) ([4]; pH 6 to pH 8, d50 3.5 or 20 micron fractions): does not significantly vary the rate of dissolution
rate of dissolution, Form I compared with Form II (FIG. 8a) [4]: dissolve much slower
effect of d50 value of particle fraction on rate of dissolution (FIG. 7a) ([4]; same conditions, d50 3.5, 7, 20 microns): greatly influenced by the d50 value

Cc1cc2c(s1)Nc1ccccc1N=C2N1CCN(C)CC1.O.O=C(O)c1cc2ccccc2c(Cc2c(O)c(C(=O)O)cc3ccccc23)c1O [olanzapine pamoate]
adverse events in trials [6]: extreme sedation and reversible coma

CCC1(c2ccccc2)C(=O)NC(=O)NC1=O [phenobarbital]
plasma concentrations of phenobarbital versus mean particle diameter (FIG. 1) [7]: tracked inversely with the mean particle diameter

— patent US8658687B2, “Injectable formulations containing asenapine and method of treatment using same” (Merck Sharp & Dohme Corp., priority 2009, dated 2014)
